PubChem BioAssay AID588599 (Sanford-Burnham Center for Chemical Genomics, 2011)

The compounds below were run against Caspase-3 (Homo sapiens) (UniProt P42574) (assay: inhibition of recombinant caspase-3 activity – biochemical, luminescence, set 2, selectivity assay for SENP protease inhibitor project, SAR follow-up (AID 588599)). Conditions: recombinant caspase-3, Z-DEVD-aminoluciferin luminescence, 60 min;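 active = compounds blocking caspase-3 with a mean IC50 under a set limit, which marks them as not selective; inactive = the rest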.
Sequence of Caspase-3 (Homo sapiens) (P42574 28-227 limits assumed): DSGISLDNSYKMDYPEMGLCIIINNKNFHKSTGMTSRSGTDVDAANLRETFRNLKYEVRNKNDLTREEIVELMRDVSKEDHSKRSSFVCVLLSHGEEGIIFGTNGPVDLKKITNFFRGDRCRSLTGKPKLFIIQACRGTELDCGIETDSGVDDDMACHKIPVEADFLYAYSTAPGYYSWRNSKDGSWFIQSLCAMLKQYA

IC50, active:
CCCCc1ccc2nc(NC(=O)c3sccc3Cl)sc2c1 1.11 µM
O=C(Nc1nc2ccccc2s1)c1cc2ccccc2s1 0.515 µM
Fc1ccc(/C=C/c2noc(-c3ccccc3I)n2)cc1 23.9 µM
Cc1cccc(-c2noc(/C=C/c3ccccc3)n2)c1 10.6 µM
